Experimental data as given in US7223865B2, “Chromogenic compounds, and use thereof as enzyme substrates” (Biomerieux, priority 2003, dated 2007).

Assays:
Assay type in all cases: cell-based
Candida albicans = test: L-alanine-aminopeptidase activity on gelled medium, Example 1; settings: 0.3 g/l, 24 hours
Method: (§1) A gelled medium comprising L-alanyl-9-(4-amino-styryl)acridine (hereinafter referred to as L-Ala-4-ASA) or L-alanyl-aminophenylacridine (hereinafter referred to as L-Ala-APA) is prepared as follows: 46.37 g of Columbia agar are added to 1 liter of distilled water and then autoclaved. This reaction medium is separated into two media of equivalent volume. Each of these media comprises, respectively: 0.3 g/l of L-Ala-4-ASA provided by means of the stock solution in DMSO, and 0.3 g/l of L-Ala-APA also provided by means of a stock solution in DMSO.
(§2) Microorganisms derived from the applicant's collection were seeded onto each of the media, by delimitation as three dials, using a suspension at 0.5 McFarland. The dishes were incubated at 37° C. for 24 hours. The colonies formed were examined visually after incubation for 24 hours. The color of these colonies was noted before and after addition of a drop of hydrochloric acid.

Citrobacter koseri = test: as above; settings: 0.3 g/l, 24 hours
Method: as §1, §2

Enterobacter cloacae = test: as above; settings: 0.3 g/l, 24 hours
Method: as §1, §2

Enterococcus faecalis = test: as above; settings: 0.3 g/l, 24 hours
Method: as §1, §2

Escherichia coli = test: as above; settings: 0.3 g/l, 24 hours
Method: as §1, §2

Klebsiella pneumoniae = test: as above; settings: 0.3 g/l, 24 hours
Method: as §1, §2

Listeria innocua = test: as above; settings: 0.3 g/l, 24 hours
Method: as §1, §2

Proteus mirabilis = test: as above; settings: 0.3 g/l, 24 hours
Method: as §1, §2

Staphylococcus aureus = test: as above; settings: 0.3 g/l, 24 hours
Method: as §1, §2

Streptococcus agalactiae = test: as above; settings: 0.3 g/l, 24 hours
Method: as §1, §2

[1] = system: Burkholderia cepacia (NCTC 10743); test: pyroglutamine-aminopeptidase activity on gelled medium, Example 9; set-up: key to growth: ++ means good growth; + means moderate growth; +/− means poor growth; NG means no growth
Method: (§3) A gelled medium comprising this substrate is prepared as follows: 30 mg of each substrate are dissolved (heating) in 10 ml of sterile distilled water. Ten ml of this solution are then added to 90 ml of Columbia agar kept molten at 50° C.
(§4) Various strains of microorganisms derived from the NCTC collection (National Collection of Type Cultures, Colindale, UK) were seeded onto the media thus obtained according to the multipoint inoculation described in example 8 above.
(§5) The colonies formed were examined visually after incubation for 24 h and 48 h. The color and the growth of these colonies were noted.

[2] = system: Enterobacter cloacae (NCTC 11936); test: as above; set-up: key to growth: ++ means good growth; + means moderate growth; +/− means poor growth; NG means no growth
Method: as §3, §4, §5

[3] = system: Escherichia coli (NCTC 14018); test: as above; set-up: key to growth: ++ means good growth; + means moderate growth; +/− means poor growth; NG means no growth
Method: as §3, §4, §5

[4] = system: Escherichia coli 0157 (NCTC 12079); test: as above; set-up: key to growth: ++ means good growth; + means moderate growth; +/− means poor growth; NG means no growth
Method: as §3, §4, §5

[5] = system: Klebsiella pneumonia (NCTC 10896); test: as above; set-up: key to growth: ++ means good growth; + means moderate growth; +/− means poor growth; NG means no growth
Method: as §3, §4, §5

[6] = system: Pseudomonas aeruginosa (NCTC 10662); test: as above; set-up: key to growth: ++ means good growth; + means moderate growth; +/− means poor growth; NG means no growth
Method: as §3, §4, §5

[7] = system: Salmonella poona (NCTC 4840); test: as above; set-up: key to growth: ++ means good growth; + means moderate growth; +/− means poor growth; NG means no growth
Method: as §3, §4, §5

[8] = system: Salmonella typhimurium (NCTC 74); test: as above; set-up: key to growth: ++ means good growth; + means moderate growth; +/− means poor growth; NG means no growth
Method: as §3, §4, §5

[9] = system: Serratia marcescens (NCTC 10211); test: as above; set-up: key to growth: ++ means good growth; + means moderate growth; +/− means poor growth; NG means no growth
Method: as §3, §4, §5

[10] = system: Shigella sonnei (NCTC 9774); test: as above; set-up: key to growth: ++ means good growth; + means moderate growth; +/− means poor growth; NG means no growth
Method: as §3, §4, §5

**Q.** Which results are given for `C[C@H](N)C(=O)Nc1ccc(C=Cc2c3ccccc3nc3ccccc23)cc1` [L-Ala-4-ASA, L-alanyl-9-(4-aminostyryl)acridine]?
**A.** color of colonies (Candida albicans; with HCl): colorless; color of colonies (Candida albicans; without HCl): colorless; color of colonies (Citrobacter koseri; with HCl): gray-mauve; color of colonies (Citrobacter koseri; without HCl): colorless; color of colonies (Enterobacter cloacae; with HCl): gray-mauve; color of colonies (Enterobacter cloacae; without HCl): colorless; color of colonies (Enterococcus faecalis; with HCl): colorless; color of colonies (Enterococcus faecalis; without HCl): colorless; color of colonies (Escherichia coli; with HCl): gray-mauve; color of colonies (Escherichia coli; without HCl): colorless; color of colonies (Klebsiella pneumoniae; with HCl): gray-mauve; color of colonies (Klebsiella pneumoniae; without HCl): colorless; color of colonies (Listeria innocua; with HCl): colorless; color of colonies (Listeria innocua; without HCl): colorless; color of colonies (Proteus mirabilis; with HCl): gray-mauve; color of colonies (Proteus mirabilis; without HCl): colorless; color of colonies (Staphylococcus aureus; with HCl): colorless; color of colonies (Staphylococcus aureus; without HCl): colorless; color of colonies (Streptococcus agalactiae; with HCl): colorless; color of colonies (Streptococcus agalactiae; without HCl): colorless

**Q.** Which results are given for `C[n+]1c2ccccc2c(-c2ccc(NC(=O)C3CCC(=O)N3)cc2)c2ccccc21.[Cl-]` (centres unmarked) [PG-4-AP-10-MA, pyroglutamyl-9-(4-aminophenyl)-10-methyl-acridine]?
**A.** color of colonies ([1]; 24 h): Colorless; growth ([1]; 24 h): ++; color of colonies ([1]; 48 h): Pale orange; growth ([1]; 48 h): ++; color of colonies ([2]; 24 h): Colorless; growth ([2]; 24 h): ++; color of colonies ([2]; 48 h): Pale orange; growth ([2]; 48 h): ++; color of colonies ([3]; 24 h): Colorless; growth ([3]; 24 h): ++; color of colonies ([3]; 48 h): Colorless; growth ([3]; 48 h): ++; color of colonies ([4]; 24 h): Colorless; growth ([4]; 24 h): ++; color of colonies ([4]; 48 h): Colorless; growth ([4]; 48 h): ++; color of colonies ([5]; 24 h): Colorless; growth ([5]; 24 h): ++; color of colonies ([5]; 48 h): Pale orange; growth ([5]; 48 h): ++; color of colonies ([6]; 24 h): Colorless; growth ([6]; 24 h): ++; color of colonies ([6]; 48 h): Orange; growth ([6]; 48 h): ++; color of colonies ([7]; 24 h): Colorless; growth ([7]; 24 h): ++; color of colonies ([7]; 48 h): Colorless; growth ([7]; 48 h): ++; color of colonies ([8]; 24 h): Colorless; growth ([8]; 24 h): ++; color of colonies ([8]; 48 h): Colorless; growth ([8]; 48 h): ++; color of colonies ([9]; 24 h): Colorless; growth ([9]; 24 h): ++; color of colonies ([9]; 48 h): Pale orange; growth ([9]; 48 h): ++; color of colonies ([10]; 24 h): Colorless; growth ([10]; 24 h): ++; color of colonies ([10]; 48 h): Colorless; growth ([10]; 48 h): ++

**Q.** With `C[C@H](N)C(=O)Nc1ccc(-c2c3ccccc3nc3ccccc23)cc1` [L-Ala-APA] as the compound, how does the color of colonies (Candida albicans; with HCl) read?
**A.** Colorless

**Q.** What about the color of colonies (Candida albicans; without HCl) of the same compound?
**A.** colorless

**Q.** And the color of colonies (Citrobacter koseri; with HCl)?
**A.** mauve

**Q.** What about the color of colonies (Citrobacter koseri; without HCl) of the same compound?
**A.** colorless

**Q.** And the color of colonies (Enterobacter cloacae; with HCl)?
**A.** mauve

**Q.** And the color of colonies (Enterobacter cloacae; without HCl)?
**A.** colorless

**Q.** And the color of colonies (Enterococcus faecalis; with HCl)?
**A.** colorless

**Q.** And the color of colonies (Enterococcus faecalis; without HCl)?
**A.** colorless

**Q.** And the color of colonies (Escherichia coli; with HCl)?
**A.** pale mauve

**Q.** What about the color of colonies (Escherichia coli; without HCl) of the same compound?
**A.** colorless

**Q.** What about the color of colonies (Klebsiella pneumoniae; with HCl) of the same compound?
**A.** mauve

**Q.** What about the color of colonies (Klebsiella pneumoniae; without HCl) of the same compound?
**A.** colorless

**Q.** And the color of colonies (Listeria innocua; with HCl)?
**A.** colorless

**Q.** What about the color of colonies (Listeria innocua; without HCl) of the same compound?
**A.** colorless

**Q.** What about the color of colonies (Proteus mirabilis; with HCl) of the same compound?
**A.** very pale-

**Q.** And the color of colonies (Proteus mirabilis; without HCl)?
**A.** colorless

**Q.** What about the color of colonies (Staphylococcus aureus; with HCl) of the same compound?
**A.** colorless

**Q.** And the color of colonies (Staphylococcus aureus; without HCl)?
**A.** colorless

**Q.** And the color of colonies (Streptococcus agalactiae; with HCl)?
**A.** colorless

**Q.** And the color of colonies (Streptococcus agalactiae; without HCl)?
**A.** colorless
